# Measured values published in patent US6696064B2 (priority 2000, dated 2004).
# Experiments:
# normal rat brain = conditions: in vivo
# [1] = cited from earlier work
# healthy volunteers = conditions: 300 mg single dose i.v. infusion, eleven healthy volunteers; cited from earlier work
compound,measurement,setting,value
CCN(CC)CCCC(C)Nc1ccnc2cc(Cl)ccc12 (stereo not drawn) [chloroquine],effect of chloroquine on histological brain damage in rats that received DT,normal rat brain,did not reduce the histological rain damage
same,effect of systemic chloroquine on brain damage caused by Tf-CRM107,normal rat brain,completely blocked the brain damage
same,time to maximum blood levels,[1]; after oral administration,3 to 5 h
same,"amounts deposited in brain, times smaller than in other body tissues",[1]; in vivo,7 to 70 times
same,"effects on the electrocardiogram, mean arterial blood pressure, or pulse rate",healthy volunteers,no effects were seen
same,side effects during i.v. infusion,healthy volunteers,only of subjective side effects
